Values of other authors as cited in patent US7422793B2, “Non-toxic corrosion-protection rinses and seals based on rare earth elements” (University of Dayton, priority 2002, dated 2008).
In brackets after ≈: the same amount, converted by molar mass.

Details: fluoride preparative agents; at or near 25° C. and at or near pH 7; cited from earlier work
In the case of `F[Si-2](F)(F)(F)(F)F.[Li+].[Li+]` [Lithium hexafluorosilicate], the “Solubility in Water” value is listed as 3.8 × 10^0 mole/L. In the case of `F[Si-2](F)(F)(F)(F)F.[K+].[K+]` [Potassium hexafluorosilicate], the “Solubility in Water” value is given as 0.0055 mol/L. For `F[Si-2](F)(F)(F)(F)F.[Na+].[Na+]` [Sodium hexafluorosilicate], the “Solubility in Water” value is given as 0.035 mol/L. In the case of `F[Si-2](F)(F)(F)(F)F.[Mg+2]` [Magnesium hexafluorosilicate], the “Solubility in Water” value is listed as 3.9 × 10^0 mole/L.

Same assay, conditions: pH 7; cited from earlier work
In the case of `[O-][Cl+3]([O-])([O-])[O-].[O]=[Bi+]` [Bismuthyl perchlorate], the “Solubility in Water” value is listed as 0.1 mol/L. In the case of `[Cs+].[O]=[V](=[O])[O-]` [Cesium vanadate], the “Solubility in Water” value is given as 0.5 mol/L. For `O=[Te](=O)([O-])[O-].[Li+].[Li+]` [Lithium tellurate], the “Solubility in Water” value is listed as 1 × 10^0 mole/L. In the case of `[Li+].[O]=[Ta](=[O])[O-]` [Lithium tantalate], the “Solubility in Water” value is listed as 0.01 mol/L. For Strontium bromate, the “Solubility in Water” value is listed as 0.91 mol/L. In the case of Vanadium pentoxide, the “Solubility in Water” value is listed as 0.044 mol/L. For Silver (I) fluorogallate, the “Solubility in Water” value is listed as 1 × 10^0 mole/L. In the case of `[Li+].[O-][Cl+3]([O-])([O-])[O-]` [Lithium perchlorate], the “Solubility in Water” value is given as 5.6 × 10^0 mole/L. In the case of Rubidium bromate, the “Solubility in Water” value is listed as 0.14 mol/L. For `[F][Zr-2]([F])([F])([F])([F])[F].[Na+].[Na+]` [Sodium hexafluorozirconate], the “Solubility in Water” value is given as 0.06 mol/L. In the case of `[K+].[O-][I+3]([O-])([O-])[O-]` [Potassium periodate], the “Solubility in Water” value is listed as 0.029 mol/L. For `[Na+].[O]=[Al-]=[O]` [Sodium aluminate], the “Solubility in Water” value is listed as 1 × 10^0 mole/L. In the case of Potassium arsenate, the “Solubility in Water” value is listed as 0.74 mol/L. For `O=[Se](=O)(O)O` [Sodium selenate], the “Solubility in Water” value is given as 1.2 × 10^0 mole/L. For `[F][Ge-2]([F])([F])([F])([F])[F].[Li+].[Li+]` [Lithium hexafluorogermanate], the “Solubility in Water” value is listed as 1 × 10^0 mole/L. For `[F][Sb-]([F])([F])([F])([F])[F].[Na+]` [Sodium hexafluoroantimonate], the “Solubility in Water” value is given as 4.97 × 10^0 mole/L. In the case of `[F][Sb]([F])([F])([F])[F]` [Antimony (V) fluoride], the “Solubility in Water” value is given as 1 × 10^0 mole/L. In the case of `[F][Ta-2]([F])([F])([F])([F])([F])[F].[K+].[K+]` [Potassium heptafluorotantalate], the “Solubility in Water” value is given as 0.3 mol/L. For `O=C([O-])c1ccccc1C(=O)O[O-].[Mg+2]` [Magnesium monoperoxyphthalate], the “Solubility in Water” value is given as 10 mol/L. In the case of `O=C(O)c1ccccc1C(=O)OO` [Monoperoxyphthalic acid], the “Solubility in Water” value is listed as 10 mol/L (≈ 1820 mg/mL). For Cesium bromate, the “Solubility in Water” value is given as 0.14 mol/L. In the case of Lithium germanate, the “Solubility in Water” value is listed as 0.063 mol/L. For `[Li+].[Li+].[O]=[Sn]([O-])[O-]` [Lithium stannate], the “Solubility in Water” value is listed as 5 × 10^0 mole/L. In the case of `[Cs+].[Cs+].[F][Hf-2]([F])([F])([F])([F])[F]` [Cesium hexafluorohafnate], the “Solubility in Water” value is listed as 0.17 mol/L. For Rubidium stannate, the “Solubility in Water” value is listed as 5 × 10^0 mole/L. In the case of Potassium niobate, the “Solubility in Water” value is given as 0.05 mol/L. For Zinc nitrite, the “Solubility in Water” value is given as 1 × 10^0 mole/L. In the case of `[F][Ta-2]([F])([F])([F])([F])([F])[F].[Na+].[Na+]` [Sodium heptafluorotantalate], the “Solubility in Water” value is given as 0.05 mol/L. For `[Na+].[Na+].[O]=[Sn]([O-])[O-]` [Sodium stannate], the “Solubility in Water” value is given as 2.3 × 10^0 mole/L. For `[Cs+].[Cs+].[F][Nb-2]([F])([F])([F])([F])([F])[F]` [Cesium heptafluoroniobate], the “Solubility in Water” value is given as 0.3 mol/L. In the case of `[O-][Cl+2]([O-])[O-].[O-][Cl+2]([O-])[O-].[Sr+2]` [Strontium chlorate], the “Solubility in Water” value is listed as 6.9 × 10^0 mole/L. In the case of `[F-].[F-].[F][Hf]([F])([F])[F].[K+].[K+]` [Potassium hexafluorohafnate], the “Solubility in Water” value is listed as 0.13 mol/L. In the case of Magnesium hexaniobate, the “Solubility in Water” value is listed as 0.088 mol/L. For `[F][Ge-2]([F])([F])([F])([F])[F].[Na+].[Na+]` [Sodium hexafluorogermanate], the “Solubility in Water” value is listed as 0.01 mol/L. In the case of `[F][Nb-2]([F])([F])([F])([F])([F])[F].[Na+].[Na+]` [Sodium heptafluoroniobate], the “Solubility in Water” value is listed as 0.05 mol/L. In the case of Rubidium hexafluorotitanate, the “Solubility in Water” value is given as 0.025 mol/L. For `CCC[N+](CCC)(CCC)CCC.[O-][Cl+3]([O-])([O-])[O-]` [Pr4N^+ perchlorate], the “Solubility in Water” value is listed as 0.1 mol/L. In the case of `[Cs+].[Cs+].[F][Ta-2]([F])([F])([F])([F])([F])[F]` [Cesium heptafluorotantalate], the “Solubility in Water” value is given as 0.3 mol/L. In the case of Magnesium vanadate, the “Solubility in Water” value is given as 1 × 10^0 mole/L. For `[K+].[K+].[O]=[Sn]([O-])[O-]` [Potassium stannate], the “Solubility in Water” value is listed as 3.7 × 10^0 mole/L. In the case of `[O]=[W](=[O])([OH])[OH]` [Tungstic acid], the “Solubility in Water” value is listed as 0.8 mol/L. For `CC[N+](CC)(CC)CC.[O-][Cl+3]([O-])([O-])[O-]` [Et4N^+ perchlorate], the “Solubility in Water” value is given as 0.5 mol/L. For Rubidium hexafluorozirconate, the “Solubility in Water” value is given as 0.0848 mol/L. In the case of `F[B-](F)(F)F.[Li+]` [Lithium tetrafluoroborate], the “Solubility in Water” value is given as 5 × 10^0 mole/L. In the case of Chloroperoxybenzoic acid, the “Solubility in Water” value is listed as 10 mol/L. In the case of `[O-][Cl+3]([O-])([O-])[O-].[O-][Cl+3]([O-])([O-])[O-].[Zn+2]` [Zinc perchlorate], the “Solubility in Water” value is given as 1 × 10^0 mole/L. For `[Li+].[O-][Cl+2]([O-])[O-]` [Lithium chlorate], the “Solubility in Water” value is given as 55 mol/L. For Cesium tungstate, the “Solubility in Water” value is given as 5 × 10^0 mole/L. For `O=N[O-].[Li+]` [Lithium nitrite], the “Solubility in Water” value is listed as 28 mol/L. For `[Na+].[O]=[Nb](=[O])[O-]` [Sodium niobate], the “Solubility in Water” value is listed as 0.059 mol/L. In the case of `[F-].[F-].[F-].[F-].[F-].[F-].[Na+].[Na+].[Sn+4]` [Sodium hexafluorostannate], the “Solubility in Water” value is given as 0.01 mol/L. For `O=[As](=O)O[As](=O)=O` [Arsenic pentoxide], the “Solubility in Water” value is listed as 6.5 × 10^0 mole/L. In the case of `[Cs+].[Cs+].[O]=[Sn]([O-])[O-]` [Cesium stannate], the “Solubility in Water” value is listed as 1 × 10^0 mole/L. In the case of `[O-][I+2]([O-])O[I+2]([O-])[O-]` [Iodine pentoxide], the “Solubility in Water” value is given as 5.6 × 10^0 mole/L. In the case of `[F][Ta-2]([F])([F])([F])([F])([F])[F].[Li+].[Li+]` [Lithium heptafluorotantalate], the “Solubility in Water” value is listed as 0.5 mol/L. For `[Na+].[O-2].[O-2].[O-2].[Ta+5]` [Sodium tantalate], the “Solubility in Water” value is given as 0.0055 mol/L. In the case of Manganese (II) Fluorosilicate, the “Solubility in Water” value is given as 4.59 × 10^0 mole/L. In the case of Sodium perborate, the “Solubility in Water” value is listed as 0.17 mol/L. In the case of `[Ce+3].[O-][Cl+3]([O-])([O-])[O-].[O-][Cl+3]([O-])([O-])[O-].[O-][Cl+3]([O-])([O-])[O-]` [Cerium (III) perchlorate], the “Solubility in Water” value is listed as 2.0 × 10^0 mole/L. In the case of `[O-][Cl+3]([O-])([O-])O` [Sodium perchlorate], the “Solubility in Water” value is given as 12 mol/L. In the case of `[F][Sn-2]([F])([F])([F])([F])[F].[Li+].[Li+]` [Lithium hexafluorostannate], the “Solubility in Water” value is given as 0.01 mol/L. For `[F][Sb-]([F])([F])([F])([F])[F].[NH4+]` [Ammonium fluoroantimonate], the “Solubility in Water” value is listed as 4.7 × 10^0 mole/L. In the case of Potassium superoxide, the “Solubility in Water” value is listed as 1 × 10^0 mole/L. In the case of Potassium tungstate, the “Solubility in Water” value is given as 142 mol/L. In the case of `[F-].[F-].[F-].[F-].[F-].[F-].[K+].[K+].[Sn+4]` [Potassium hexafluorostannate], the “Solubility in Water” value is given as 0.128 mol/L. In the case of Potassium fluoroaluminate, the “Solubility in Water” value is given as 0.0061 mol/L. In the case of Sodium tungstate, the “Solubility in Water” value is listed as 249 mol/L. In the case of `[Li+].[Li+].[O]=[Mo](=[O])([O-])[O-]` [Lithium molybdate], the “Solubility in Water” value is listed as 10 mol/L. In the case of `[K+].[K+].[O]=[Mo](=[O])([O-])[O-]` [Potassium molybdate], the “Solubility in Water” value is listed as 775 mol/L. In the case of `[O]=[Mo](=[O])([OH])[OH]` [Molybdic acid], the “Solubility in Water” value is listed as 0.0074 mol/L. In the case of Magnesium tungstate hydrate, the “Solubility in Water” value is given as 0.72 mol/L. For Cesium germanate, the “Solubility in Water” value is listed as 0.5 mol/L. In the case of `[Li+].[Nb+5].[O-2].[O-2].[O-2]` [Lithium niobate], the “Solubility in Water” value is listed as 0.1 mol/L. In the case of `[F][Al-3]([F])([F])([F])([F])[F].[Na+].[Na+].[Na+]` [Sodium hexafluoroaluminate], the “Solubility in Water” value is listed as 0.0029 mol/L. For `[F][Hf-2]([F])([F])([F])([F])[F].[Na+].[Na+]` [Sodium hexafluorohafnate], the “Solubility in Water” value is given as 0.07 mol/L. For `[Mg+2].[O]=[Mo](=[O])([O-])[O-]` [Magnesium molybdate], the “Solubility in Water” value is given as 0.74 mol/L. In the case of Copper (II) hexafluorosilicate, the “Solubility in Water” value is listed as 7.4 × 10^0 mole/L. In the case of `F[Si-2](F)(F)(F)(F)F.[Zn+2]` [Zinc hexafluorosilicate], the “Solubility in Water” value is listed as 1.11 × 10^0 mole/L. In the case of `[F][Ti-2]([F])([F])([F])([F])[F].[Li+].[Li+]` [Lithium hexafluorotitanate], the “Solubility in Water” value is given as 0.05 mol/L. For `[F][Sb-]([F])([F])([F])([F])[F].[Li+]` [Lithium hexafluoroantimonate], the “Solubility in Water” value is listed as 1 × 10^0 mole/L. In the case of `[F-].[F-].[F][Zr]([F])([F])[F].[Li+].[Li+]` [Lithium hexafluorozirconate], the “Solubility in Water” value is listed as 0.08 mol/L. In the case of `[F][Zr-2]([F])([F])([F])([F])[F].[K+].[K+]` [Potassium hexafluorozirconate], the “Solubility in Water” value is listed as 0.0812 mol/L. In the case of `[Cs+].[O-][I+3]([O-])([O-])[O-]` [Cesium periodate], the “Solubility in Water” value is given as 0.066 mol/L.
